US8865894B2, “Oxazolidin-2-one compounds and uses thereof” (Novartis AG, priority 2012, dated 2014)
pIC50: −log10 of the molar value.

How the values were obtained:
[1] = target: T1, human PI3Kdelta p110 catalytic subunit (Rat-1 pBABEpuro Myr-HA-hp110 delta) (Homo sapiens, UniProt O00329); test: Cellular assay PI3Kdelta (p-Akt(S473) SureFire, Rat-1_PI3Kdelta cells); assay type: cell-based; settings: 1 h compound treatment, read-out: Rat1-PI3Kd/ IC50
T1 construct: Myr (myristoylation signal) (N); HA (N); expressed in transfected cells; host or cells: Rat-1
Excerpt: (§1) AlphaScreen (Amplified Luminescent Proximity Homogeneous Assay, ALPHA, Perkin Elmer) is a non-radioactive bead-based proximity assay technology to study biomolecular interactions in a homogenous microtiter plate format. The brand name SureFire denotes AlphaScreen assays that are adapted to quantify the phosphorylation of endogenous cellular proteins in cell lysates, by using matched antibody pairs, which consist of an anti-phospho-kinase and an anti-kinase antibody. The assay allows characterization of kinase signaling in cells as well as measurement of kinase inhibitor effects. The AlphaScreen technology provides several advantages over standard assay techniques such as ELISA, as it avoids time-consuming washing procedures and reduces plate handling. Furthermore, it is miniaturizable at least to a 384-well format and provides sensitivity down to the femtomolar range, dependent on the affinity of the antibodies included in the individual AlphaScreen SureFire assay kit. High sensitivity is reached by an intrinsic amplification mechanism, which involves production of singlet oxygen molecules. SureFire assay kits are commercially available for specific targets and include pairs of validated antibodies (PerkinElmer). This report describes common procedures applied for AlphaScreen SureFire assays and respective semi-automated steps for routine kinase inhibitor profiling in cell-based assays.
(§2) The Rat-1 cell lines stably overexpressing activated PI3K class I isoforms Rat-1 pBABEpuro Myr-HA-hp110 delta (Rat-1_PI3Kdelta) and Rat-1 pBABEpuro Myr-HA-hp110alpha (Rat-1_PI3Kalpha) and Rat-1 pBABEpuro Myr-HA-hp110 beta (Rat-1_PI3beta) were prepared as described (Maira S M, Stauffer F, Brueggen J, Furet P, Schnell C, Fritsch C, Brachmann S, Chène P, de Pover A, Schoemaker K, Fabbro D, Gabriel D, Simonen M, Murphy L, Finan P, Sellers W, García-Echeverría C (2008), Mol Cancer Ther. 7:1851-63 and Maira S M, Pecchi S, Brueggen J, Huh K, Schnell C, Fritsch C, Nagel T, Wiesmann M, Brachmann S, Dorsch M, Chène P, Schoemaker K, De Pover A, Menezes D, Fabbro D, Sellers W, García-Echeverría C, Voliva C F (2011), Mol. Cancer Ther., accepted). All cell lines were cultivated in complete growth medium (DMEM high glucose, 10% (v/v) fetal bovine serum, 1% (v/v) MEM NEAA, 10 mM HEPES, 2 mM L-glutamine, puromycin (10 μg/mL for Rat-1_PI3Kdelta and Rat-1_PI3Kalpha, 4 ug/mL for Rat-1_PI3beta), 1% (v/v) Pen/Strep) to 90% confluency at 37° C./5% CO2/90% humidity in a humidified CO2 incubator and were split twice a week.
(§3) The following materials were used for p-AKT(S473) detection in Rat-1 cell lysates: Dulbecco's modified Eagle's medium (DMEM) high glucose (Gibco Invitrogen, Basel, Switzerland, Cat. No. 41965), Heat Inactivated Fetal Bovine Serum, Qualified (HI FBS; Gibco Invitrogen, Basel, Switzerland, Lot. No. 16140), MEM non essential amino acids (NEAA; Gibco Invitrogen, Basel, Switzerland, Cat. No. 11140), HEPES (Gibco Invitrogen, Basel, Switzerland, Cat. No. 15630), Penicillin/Streptomycin (Pen/Strep, 100×; Gibco Invitrogen, Basel, Switzerland, Cat. No. 15140-122), L-Glutamine (Gibco Invitrogen, Basel, Switzerland, Cat. No. 25030), Puromycin (Sigma Aldrich, Buchs, Switzerland, Cat. No. P9620), DMSO (MERCK, Dietikon, Switzerland, Cat. No. 8.02912.2500), H2O, MilliQ-H2O unless otherwise stated (MILLIPORE QGARDOOR1, Millipore, Zug, Switzerland), Bovine serum albumine (BSA; Sigma Aldrich, Buchs, Switzerland Cat. No. A8412), SureFire p-Akt 1/2 (Ser473) Assay Kit (PerkinElmer, Schwerzenbach, Switzerland, Cat. No. TGRAS50K).
(§4) The p-Akt(S473) SureFire assay measures the phosphorylation of endogenous cellular Akt 1/2 at Ser473 in cell lysates. Using Rat-1 cells stably expressing myr-HA-tagged versions of the human PI3Kdelta, PI3Kalpha, or PI3Kbeta p110 catalytic subunit isoforms, the assay was developed as a two-plate protocol in a 384-well format.

[2] = target: T2, human PI3Kbeta p110 catalytic subunit (Rat-1 pBABEpuro Myr-HA-hp110 beta) (Homo sapiens, UniProt P42338); test: Cellular assay PI3Kbeta (p-Akt(S473) SureFire, Rat-1_PI3beta cells); assay type: cell-based; settings: p-Akt(S473), 1 h compound treatment; read-out: Rat1-PI3Kb/ IC50
T2 construct: Myr (myristoylation signal) (N); HA (N); expressed in transfected cells; host or cells: Rat-1
Excerpt: as §1, §2, §3, §4

T2 sequence (P42338 whole entry): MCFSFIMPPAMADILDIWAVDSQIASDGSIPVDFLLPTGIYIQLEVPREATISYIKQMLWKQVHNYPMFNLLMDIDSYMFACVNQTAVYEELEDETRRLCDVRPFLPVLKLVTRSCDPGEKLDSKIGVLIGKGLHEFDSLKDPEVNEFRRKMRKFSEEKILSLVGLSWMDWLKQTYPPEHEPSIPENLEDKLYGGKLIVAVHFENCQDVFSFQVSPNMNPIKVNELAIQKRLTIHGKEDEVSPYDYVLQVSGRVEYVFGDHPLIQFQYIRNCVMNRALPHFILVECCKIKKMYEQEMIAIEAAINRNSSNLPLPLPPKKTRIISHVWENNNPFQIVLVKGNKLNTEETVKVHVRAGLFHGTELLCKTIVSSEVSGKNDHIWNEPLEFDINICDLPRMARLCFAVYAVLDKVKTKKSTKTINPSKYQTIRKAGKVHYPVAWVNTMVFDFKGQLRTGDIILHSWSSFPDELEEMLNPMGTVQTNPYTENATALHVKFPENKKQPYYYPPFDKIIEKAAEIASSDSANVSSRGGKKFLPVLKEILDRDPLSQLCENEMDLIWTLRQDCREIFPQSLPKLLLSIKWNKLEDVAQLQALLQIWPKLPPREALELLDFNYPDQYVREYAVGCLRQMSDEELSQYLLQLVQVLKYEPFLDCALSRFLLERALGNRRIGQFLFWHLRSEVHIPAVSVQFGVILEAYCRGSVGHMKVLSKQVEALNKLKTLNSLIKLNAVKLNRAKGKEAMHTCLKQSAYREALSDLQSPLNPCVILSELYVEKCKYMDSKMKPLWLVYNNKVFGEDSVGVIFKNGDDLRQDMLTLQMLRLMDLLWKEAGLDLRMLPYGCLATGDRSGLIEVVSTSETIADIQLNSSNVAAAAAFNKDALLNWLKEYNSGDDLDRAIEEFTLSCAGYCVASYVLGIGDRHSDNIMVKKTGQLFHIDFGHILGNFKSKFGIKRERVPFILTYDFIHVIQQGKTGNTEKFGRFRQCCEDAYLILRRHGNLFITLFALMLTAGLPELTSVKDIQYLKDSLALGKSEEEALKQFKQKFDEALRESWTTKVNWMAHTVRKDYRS
T2 sequence (Q63787 whole entry partner): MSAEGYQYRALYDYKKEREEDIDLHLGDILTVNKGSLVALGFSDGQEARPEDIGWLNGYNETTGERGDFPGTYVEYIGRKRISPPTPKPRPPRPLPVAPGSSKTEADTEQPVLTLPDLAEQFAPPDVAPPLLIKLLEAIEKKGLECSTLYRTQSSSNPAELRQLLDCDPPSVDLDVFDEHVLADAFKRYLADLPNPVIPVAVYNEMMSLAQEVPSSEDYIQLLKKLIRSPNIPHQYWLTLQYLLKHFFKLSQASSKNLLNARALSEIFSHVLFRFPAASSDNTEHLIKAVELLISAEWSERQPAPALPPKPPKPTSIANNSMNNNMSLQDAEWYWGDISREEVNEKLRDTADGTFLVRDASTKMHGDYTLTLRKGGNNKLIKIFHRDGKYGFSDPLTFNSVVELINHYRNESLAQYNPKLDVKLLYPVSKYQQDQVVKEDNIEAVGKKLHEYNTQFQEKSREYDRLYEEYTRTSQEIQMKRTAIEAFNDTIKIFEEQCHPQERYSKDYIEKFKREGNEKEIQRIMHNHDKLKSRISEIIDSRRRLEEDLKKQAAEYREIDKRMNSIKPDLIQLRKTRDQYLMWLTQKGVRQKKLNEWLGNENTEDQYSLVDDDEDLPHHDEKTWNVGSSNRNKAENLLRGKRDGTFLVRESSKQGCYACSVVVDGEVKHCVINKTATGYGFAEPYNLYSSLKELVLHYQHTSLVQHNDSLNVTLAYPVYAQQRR
T1 sequence (O00329 whole entry): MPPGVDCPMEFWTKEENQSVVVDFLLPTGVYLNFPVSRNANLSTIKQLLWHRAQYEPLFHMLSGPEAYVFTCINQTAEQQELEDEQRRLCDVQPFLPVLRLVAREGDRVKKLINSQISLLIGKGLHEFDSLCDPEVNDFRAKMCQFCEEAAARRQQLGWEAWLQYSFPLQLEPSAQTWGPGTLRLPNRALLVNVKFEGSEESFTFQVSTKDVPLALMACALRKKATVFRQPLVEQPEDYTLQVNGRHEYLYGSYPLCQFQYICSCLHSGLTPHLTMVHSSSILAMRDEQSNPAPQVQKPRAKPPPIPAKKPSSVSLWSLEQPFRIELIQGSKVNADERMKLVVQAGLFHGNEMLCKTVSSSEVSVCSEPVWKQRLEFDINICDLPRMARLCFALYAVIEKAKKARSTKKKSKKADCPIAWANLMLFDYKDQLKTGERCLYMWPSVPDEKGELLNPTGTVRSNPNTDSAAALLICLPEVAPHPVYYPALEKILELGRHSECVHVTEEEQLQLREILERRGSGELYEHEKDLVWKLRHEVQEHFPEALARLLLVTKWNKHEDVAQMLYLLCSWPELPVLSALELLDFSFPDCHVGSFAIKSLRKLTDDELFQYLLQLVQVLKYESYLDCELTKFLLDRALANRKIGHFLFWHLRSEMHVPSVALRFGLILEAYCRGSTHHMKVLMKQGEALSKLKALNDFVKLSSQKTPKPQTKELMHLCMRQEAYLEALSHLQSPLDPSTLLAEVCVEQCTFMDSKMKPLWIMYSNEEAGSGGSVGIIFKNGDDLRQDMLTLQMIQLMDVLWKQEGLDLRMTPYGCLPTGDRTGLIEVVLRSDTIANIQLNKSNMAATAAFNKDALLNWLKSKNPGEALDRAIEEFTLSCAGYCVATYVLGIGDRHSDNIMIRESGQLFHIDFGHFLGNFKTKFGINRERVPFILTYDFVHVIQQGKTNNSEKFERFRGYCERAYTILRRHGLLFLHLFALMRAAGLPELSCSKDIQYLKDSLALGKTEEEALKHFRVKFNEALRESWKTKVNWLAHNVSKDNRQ
T1 sequence (Q63787 whole entry partner): as the sequence (Q63787 whole entry partner) above

Row | SMILES | pIC50 [1] | pIC50 [2]
1 | COC[C@H]1COC(=O)N1c1cc(-c2cnc(N)nc2C(F)(F)F)nc(N2CCOCC2)n1 [Example 5, (S)-3-(2′-Amino-2-morpholin-4-yl-4′-trifluoromethyl-[4,5′]bipyrimidinyl-6-yl)-4-methoxymethyl-oxazolidin-2-one] | 7.64 | 6.50
2 | C[C@H]1COCCN1c1nc(-c2cnc(N)nc2C(F)(F)F)cc(N2C(=O)OC[C@@H]2C)n1 [Example 13, (S)-3-[2′-Amino-2-((S)-3-methyl-morpholin-4-yl)-4′-trifluoromethyl-[4,5′]bipyrimidinyl-6-yl]-4-methyl-oxazolidin-2-one] | 7.38 | 6.62
3 | C[C@H]1OC(=O)N(c2cc(-c3cnc(N)nc3C(F)(F)F)nc(N3CCOC[C@@H]3C)n2)[C@H]1CO [Example 10, (4S,5R)-3-[2′-Amino-2-((S)-3-methyl-morpholin-4-yl)-4′-trifluoromethyl-[4,5′]bipyrimidinyl-6-yl]-4-hydroxymethyl-5-methyl-oxazolidin-2-one] | 7.28 | 6.76

More lines, now with the values ahead:

Row | pIC50 [1] | pIC50 [2] | SMILES
4 | 7.57 | 7.11 | Nc1ncc(-c2cc(N3C(=O)O[C@@H]4[C@@H](O)CC[C@@H]43)nc(N3CCOCC3)n2)c(C(F)(F)F)n1 (racemic) [Example 22, (3aR*,6R*,6aR*)-3-(2′-Amino-2-morpholino-4′-(trifluoromethyl)-[4,5′-bipyrimidin]-6-yl)-6-hydroxyhexahydro-2H-cyclopenta[d]oxazol-2-one]
5 | 6.95 | 6.91 | Nc1ncc(-c2cc(N3C[C@H](CO)OC3=O)nc(N3CCOCC3)n2)c(C(F)(F)F)n1 [Example 20, (R)-3-(2′-Amino-2-morpholin-4-yl-4′-trifluoromethyl-[4,5′]bipyrimidinyl-6-yl)-5-hydroxymethyl-oxazolidin-2-one]
